Test results as given in ChEMBL document CHEMBL3507680, “University of Dundee, Gates Library screen for HepG2 cell viability”.

assay: Human HepG2 cell viability assay in 384 well format; assay type: toxicity, cell-based; set-up: dose 125 nL, time 70.5 hour; concentration not given beside the values; details: HepG2 cells, read-out: Inhibition

Row | SMILES | cytotoxicity at 70.5 h [%]
1 | O=S(=O)(c1ccc(C(F)(F)F)cc1)N1CCC(OCc2ccccn2)C1 (stereo not given) | 1.24
2 | CCn1ncc2c1CN(C(=O)Cc1ccccn1)CC2COC (stereo not given) | -3.07
3 | Cn1nc(C(=O)NC2CC2)cc1NC(=O)C1CC1 | -7.34
4 | O=C(c1cscn1)N1CC[C@]2(C[C@@H](OCCN3CCCC3)CO2)C1 | -6.54
5 | O=c1oc(-c2cccs2)nn1CC1(O)CCCCC1 | -1.35
6 | O=C(NCCn1nc2ccccn2c1=O)c1scnc1Cl | -2.79
7 | CCNC(=O)CCC(=O)Nc1ccc2nn(C(C)C)cc2c1 | 18.4
8 | c1cc(-c2cnccn2)cc(-c2ccn(CCN3CCCCC3)n2)c1 | -7.67
9 | CC(C)C(Sc1nnc(NC2CC2)s1)C(=O)NCc1cccnc1 (stereo not given) | -15.5
10 | COCCNCc1ccc(OCC(=O)NC(C)(C)C)cc1 | 19.6
11 | CCN(CC)CCn1cc(NC(=O)Nc2ccccc2OC)cn1 | -11.6
12 | COCCN1CCC2(CC1)CN(C(C)=O)c1ccc(C)cc12 | 4.91
13 | Cc1cc(C)n(CC(C)CNC(=O)[C@@H](C)NC(=O)OC(C)(C)C)n1 (stereo not given in full) | -27.5
14 | Cc1ccccc1C(C)(C)CNC(=O)CCSc1nnnn1C | -1.67
15 | Cc1ncsc1CN1CC[C@H](O)[C@@H](n2cnc3c(N)ncnc32)CC1 | 8.32
16 | Cc1nn(C)cc1CN1CCC(C2Nc3ccccc3S(=O)(=O)N2)CC1 (stereo not given) | -12.8
17 | Cc1ccc(OCCN(C)S(=O)(=O)c2cnn(C)c2)cc1 | -4.35
18 | CC(CNS(N)(=O)=O)Oc1cccc(Cl)c1 (stereo not given) | -0.0153
19 | O=C(Nc1ccc(CCN2CCOCC2)cc1)C1CCC1 | -3.21
20 | COc1ccc(CNC2(Cc3cc(CC(C)C)on3)COC2)cc1 | 9.64
21 | O=C(NCC1CC1)C1=NOC2(CCN(Cc3ccsc3)C2)C1 (stereo not given) | -7.31
22 | Cn1cc(NC(=O)CNC(=O)N2CCN(c3ccc(F)cc3)CC2)cn1 | -2.76
23 | O=C(CN1CCOCC1)N1CCN(C2CCc3ccc(F)cc32)CC1 (stereo not given) | -4.68

Row | SMILES | cytotoxicity at 70.5 h [%]
24 | Cc1nc(COC(=O)c2cccnc2C)no1 | -5.39
25 | COCCN1CCO[C@@H]2CN(C(=O)COc3ccc(C)cc3)C[C@@H]2C1 | -8.74
26 | CC(C(=O)NCC1(c2cccc(Br)c2)CCC1)S(C)(=O)=O (stereo not given) | 7
27 | CC(C)NC(=O)[C@@H]1C[C@H]2OCC[C@H]2N(Cc2ccc3ccccc3n2)C1 | 12.8
28 | COC(=O)C(C)NCc1ccc2[nH]c(C)c(C)c2c1 (stereo not given) | -0.287
29 | OC1(CN2CCCC2)CCCN(Cc2ccc(F)cc2Cl)C1 (stereo not given) | -7.3
30 | CC(C)NC(=O)COc1nc(C(C)(C)C)no1 | -6.41
31 | CC1CCCN(C(=O)c2csc(S(N)(=O)=O)c2)CC1 (stereo not given) | -1.03
32 | CN(Cc1ccncc1)C(=O)NCc1cn(-c2ccccc2)nn1 | -8.45
33 | CCOC(=O)c1cc2n(n1)CCCO2 | 22.1
34 | COc1ccc(C(=O)N2C[C@@H](CN3CCOCC3)[C@@H](CO)C2)c(C)c1 | -7.76
35 | Cc1ccc(CN2CCN(C(=O)c3ccc(Br)o3)CC2)cc1 | 27.9
36 | O=C(OCCNc1ncccn1)c1ccc(Cl)s1 | -3.07
37 | Cc1ccc2nc(C(=O)N3C[C@@H](C(=O)O)[C@H](c4ccccc4)C3)cn2c1 | -8.12
38 | Cc1ccc(N2C[C@H]3CCC[C@@H](CN(C)C)[C@H]3C2)nn1 | -0.102
39 | COc1ccc(C2Nc3cc(Cl)ccc3C3=NCCN32)cc1O (stereo not given) | -1.91
40 | CCn1cnnc1C1CCN(C(=O)c2ccccc2F)CC1 | -7.26
41 | CSCCC(O)C(=O)N(C)Cc1cnn(-c2ccc(F)cc2)c1 (stereo not given) | -3.28
42 | CCOC(=O)[C@@H]1[C@@H](O)C(=O)N(C)C12CCN(C(=O)OC)CC2 | -10.2
43 | CCN1CCC(CC(=O)NCc2nc(C)cc(C)n2)CC1 | -3.98
44 | CC(C)N1CCCCC1c1cncc(Cl)n1 (stereo not given) | 17.6
45 | O=C1C(NS(=O)(=O)c2cccc(F)c2)CCN1Cc1ccccc1 (stereo not given) | -12
46 | Cc1cc(CNCC2(O)CCCN(CCCc3ccccc3)C2=O)n[nH]1 (stereo not given) | -5.17

Row | SMILES | cytotoxicity at 70.5 h [%]
47 | Cc1cc(C)c(CNC(=O)NCC(c2ccccc2)N(C)C)c(=O)[nH]1 (stereo not given) | 7.25
48 | COc1cccc(C2CC(=O)Nc3nc(N)sc32)c1OC (stereo not given) | 12.4
49 | Cc1ccc(C(CNCc2ccc(C#N)cc2)N2CCOCC2)s1 (stereo not given) | -3.96
50 | CCc1noc(C(C)N2CCN(CCN3CCCC3=O)CC2)n1 (stereo not given) | -2.78
51 | Cc1cc(C)c(CNC(=O)NCC2COCCO2)c(=O)[nH]1 (stereo not given) | -4.78
52 | COc1ncc(-c2c(C#N)c(N)nc3c2CCc2[nH]ccc2-3)cn1 | -4.69
53 | C1CCN(CCOC2CCNCC2)C1 | -2.17
54 | Cc1cc(C)n(CC2CCCN2CCc2ccccn2)n1 (stereo not given) | 1.45
55 | COC(=O)CCC(=O)NC1CCCc2cc(OC(F)F)ccc21 (stereo not given) | -13
56 | Cc1ccc(C)c(OCc2nnc(SCC3CCCN(C)C3)o2)c1 (stereo not given) | -5.12
57 | CC(C)(C)n1cc(C2=CCN(CCNC(N)=O)CC2)cn1 | -0.0754
58 | N[C@@H]1c2ccccc2C2(CCN(c3cccc(C(F)(F)F)n3)CC2)[C@H]1O | 5.4
59 | Cc1cc(CNC2(CO)CCOCC2)ccc1Br | -0.894
60 | CC(O)C1CCN(C(=O)CCOc2ccccc2F)CC1 (stereo not given) | -14.1
61 | CC(C)OCCCN1CCCC(c2nc3ccccc3n2C(C)C)C1 (stereo not given) | 13.2
62 | COc1ccc(Cn2ccnc2)cc1F | -10.7
63 | CN(CCCc1cc(-c2ccccc2)no1)S(C)(=O)=O | 8.59
64 | CC(C)(C)CC(=O)N1CCCC2(CC(C(=O)Nc3ccccc3)=NO2)C1 (stereo not given) | -8.03
65 | O=C1CC[C@H]2[C@H](CCN2c2ncccn2)N1c1ccccc1 | -10.3
66 | CCc1noc(C2CC(=O)N(CCN(C)C)C2)n1 (stereo not given) | -3.23
67 | O=C(CN1CC(n2cccn2)C1)NCCc1c[nH]c2ccccc12 | -13.2
68 | Cc1cc(NC(=O)CN2CCCC2c2noc(C3CC3)n2)on1 (stereo not given) | -7.03
69 | Cc1nnc(CN(C)C2CCN(CCc3ccccn3)CC2)o1 | -4.31

Row | SMILES | cytotoxicity at 70.5 h [%]
70 | CCC1CN(CCCO)c2ccccc2O1 (stereo not given) | 0.738
71 | CN(Cc1ccn[nH]1)C(=O)CCC(=O)NC1CCCC1 | -9.97
72 | Cn1cnc2c1C(COCc1ccccc1)N(Cc1cccnc1)CC2 (stereo not given) | -0.0183
73 | Cc1nn(C)c(C)c1C1CCCN1CCOc1cccc(C#N)c1 (stereo not given) | -3.95
74 | Cc1cc(C)n(C2CN(CC(O)c3ccc(S(C)(=O)=O)cc3)C2)n1 (stereo not given) | 0.799
75 | Cc1nc2ccccc2c(=O)n1Cc1nnnn1C1CC1 | 1.18
76 | Cc1ccc(-c2ncc(C(=O)NS(C)(=O)=O)s2)c(C)c1 | -1.13
77 | CC(=O)N1CCc2nnc(C3CCCCN3CC3CCCCC3)n2CC1 (stereo not given) | 12.6
78 | C1CCC(c2nnc3sc(C4CCCO4)nn23)C1 (stereo not given) | 10.1
79 | Cc1ccc(CCNC(=O)NCCCC(N)=O)c(C)c1 | 1.66
80 | COc1cc(CN2CCC3(CC(Nc4ccncn4)C3)C2)cc(OC)c1 (stereo not given) | 0.186
81 | CCNC(=O)[C@@H]1CCCN1C(=O)c1cccc(CCC(C)(C)O)c1 | -7.73
82 | CC(C)CN1C[C@H]2CCN(C(=O)C3CCCO3)CC[C@H]2S1(=O)=O (stereo not given in full) | -8.39
83 | Cc1nc(O)c2nnn(C[C@H]3CCCN3C(=O)c3ccc(F)cc3)c2n1 | -4.53
84 | Cn1cnnc1C1CCCN(C(=O)NCCNc2ccccn2)C1 (stereo not given) | -15.9
85 | CC(C)c1cc(C(=O)N2CCNCC2C(=O)NCc2ccncc2)on1 (stereo not given) | -2.19
86 | O=C(c1ccc(C2CCCN2C(=O)c2cscn2)s1)N1CCSCC1 (stereo not given) | -11.1
87 | Cn1cccc1C(=O)N[C@@H]1CN(Cc2cccs2)[C@@H]2COC[C@@H]21 | -3.46
88 | CS(=O)(=O)NC(c1ccccc1)c1ccc2c(c1)CCCO2 (stereo not given) | -6.34
89 | Cc1cc(CN2CCC(CNS(=O)(=O)c3ccccc3F)CC2)c(C)o1 | 37.7
90 | COc1ccc(N(C(=O)Cc2ccc(C)nc2)C(C)C)cc1F | -5.23
91 | COc1ccc(SC(C)C(=O)N2CCC(C(N)=O)CC2)cc1 (stereo not given) | -14.1
92 | CSCCC(O)C(=O)N1CCN(Cc2cccc(Cl)c2)CC1 (stereo not given) | -12.9

Row | SMILES | cytotoxicity at 70.5 h [%]
93 | CC1CCN(CC(=O)NC(C#N)c2cnn(-c3ccccc3)c2)CC1 (stereo not given) | -2.96
94 | Nc1cccnc1N1CCN(c2ccccc2)CC1 | -0.724
95 | CNC(=O)C1(C)CCCN(c2cnccn2)C1 (stereo not given) | -8.04
96 | COc1ccc(-c2nnsc2C(=O)N2CCN(C(C)=O)CC2)cc1 | -12.8
97 | Fc1cccc(CNCC2Cn3nncc3CO2)c1 (stereo not given) | -7.02
98 | O=C(Nc1cccc2c1CCCC2)c1cccc(CN2CC[C@H](O)C2)c1 | -4.36
99 | CCc1nn(C)c2[nH]nc(NC(=O)c3cccnc3OCC(C)C)c12 | -90.4
100 | CC(C)c1nc(CN(C)C2CCN(CCS(C)(=O)=O)C2)no1 (stereo not given) | -4.02
101 | Cn1ncc2c1NC(=O)CC2c1ccccc1Cl (stereo not given) | -5.68
102 | CC(C)NC(=O)c1cc2c(s1)CCN2c1ncccn1 | 3.85
103 | CCN1CC2(CCN(C(=O)C3CSC(C)(C)C(=O)N3)CC2)CC1=O (stereo not given) | -6.11
104 | COCCc1noc(CN2CCCCC2Cn2cccn2)n1 (stereo not given) | -11.6
105 | COc1ccccc1OCC(=O)N1C[C@@H]2CN(C)CCO[C@@H]2C1 | 32.3
106 | O=C1CC(c2ccc(CO)o2)c2cnn(Cc3ccco3)c2N1 (stereo not given) | -7.94
107 | CCOc1ccc(CC(=O)N2CCCC(n3nc(C)nc3C)C2)cc1 (stereo not given) | -5.27
108 | O=C(Nc1cc(F)ccc1OCC1CCCO1)c1ccoc1 (stereo not given) | -2.66
109 | O=C1NCCO[C@H]2CN(C(=O)Cc3ccco3)CC[C@@H]12 | -5.72
110 | c1cc(CNCCC2CCCO2)ccn1 (stereo not given) | 5.59
111 | O=C(CN1CCc2sccc2C1)Nc1nccs1 | -18.3
112 | O=C(CCCc1nc(C2CC2)no1)N1CCCC(c2ccn[nH]2)C1 (stereo not given) | -7.72
113 | Cn1cc(CN2CCC[C@]3(C(=O)O)CN(c4cnccn4)CC[C@@H]23)cn1 | -2.41
114 | CNC(=O)[C@H]1C[C@H]2OCC[C@H]2N(CC2CC2)C1 | -3.14
115 | COc1cccc(COCC(=O)N2CCCC(n3ccnc3C)C2)c1 (stereo not given) | -15.7
